Assay [1] has as its system HCT116 MTAP null cells. Briefly: HCT116 proliferation assay, MTAP null cells (CellTiter-Glo, 6 days). The class given is cell-based. The conditions noted are these: 144 h, read-out: Protif_ HCT116-MTAP null IC50. In a few lines:
(§1)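 Cells grown in RPMI 1640 + 10% FBS, plated overnight, then exposed for 6 days to 8- or 9-point 1:3 compound dilutions (top 1 or 10 µM) with DMSO control. Viability read by CellTiter-Glo luminescence.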

Assay [2] concerns HCT116 WT cells. Briefly: HCT116 proliferation assay, WT cells (CellTiter-Glo, 6 days). It counts as cell-based. The conditions noted are these: Homo sapiens, HCT-116, 144 h, read-out: Prolif_HCT116-WT IC50. Put shortly: as §1
(In general: In ATP-based viability assays light output follows the ATP content of the culture.)

Assay [3] deals with PRMT5/MEP50 (Homo sapiens, UniProt O14744). In words: MTase-Glo methyl transferase assay, Method A (Histone H4 peptide, 1 µM MTA, 24 h pre-incubation). The class given is biochemical. The arrangement: made in house. The note with it: read-out: PRMT5 MTase Glo Ki (nM, Meth. A). Put shortly: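 PRMT5/MEP50 (10 nM) pre-incubated 24 h with compound, 5 µM SAM and 1 µM MTA, then reaction started with 1 µM Histone H4 (1-21) peptide and run 2 h at room temperature in Tris pH 8.0 buffer. SAH formed detected by MTase-Glo luminescence; IC50 and KI from dose-response curves.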
Sequence of PRMT5/MEP50 (O14744 whole entry): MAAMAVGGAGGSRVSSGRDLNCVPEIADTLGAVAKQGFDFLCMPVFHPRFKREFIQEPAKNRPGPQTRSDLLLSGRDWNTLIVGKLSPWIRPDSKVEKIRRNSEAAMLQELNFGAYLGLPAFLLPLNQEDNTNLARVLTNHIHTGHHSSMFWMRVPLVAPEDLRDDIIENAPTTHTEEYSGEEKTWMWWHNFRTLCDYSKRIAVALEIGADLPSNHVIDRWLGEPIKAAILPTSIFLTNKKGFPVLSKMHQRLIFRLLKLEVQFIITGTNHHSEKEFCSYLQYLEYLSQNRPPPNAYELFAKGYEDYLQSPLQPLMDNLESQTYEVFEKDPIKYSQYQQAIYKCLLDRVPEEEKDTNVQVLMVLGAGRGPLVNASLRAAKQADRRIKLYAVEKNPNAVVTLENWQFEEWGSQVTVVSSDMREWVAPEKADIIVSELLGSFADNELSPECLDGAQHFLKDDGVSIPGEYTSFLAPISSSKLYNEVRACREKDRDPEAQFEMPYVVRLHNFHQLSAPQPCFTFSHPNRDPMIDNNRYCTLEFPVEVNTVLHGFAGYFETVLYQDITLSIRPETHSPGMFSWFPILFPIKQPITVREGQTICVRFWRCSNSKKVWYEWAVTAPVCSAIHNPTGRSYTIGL
Sequence of PRMT5/MEP50 (Q9BQA1 whole entry partner): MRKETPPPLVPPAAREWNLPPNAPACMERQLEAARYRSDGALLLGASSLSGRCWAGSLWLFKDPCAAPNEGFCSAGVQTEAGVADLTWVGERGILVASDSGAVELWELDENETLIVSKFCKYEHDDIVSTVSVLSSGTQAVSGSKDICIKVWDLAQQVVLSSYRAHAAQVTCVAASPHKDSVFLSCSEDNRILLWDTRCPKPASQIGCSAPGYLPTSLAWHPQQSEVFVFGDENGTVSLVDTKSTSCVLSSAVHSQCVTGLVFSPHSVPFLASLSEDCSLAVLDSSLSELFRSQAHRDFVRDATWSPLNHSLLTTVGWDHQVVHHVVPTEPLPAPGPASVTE

Structures are written as SMILES. Like-named read-outs stand apart in the source and are kept apart here. Some results are limits rather than exact numbers.

As usually defined, the IC50 is the concentration that gives 50% inhibition. Broadly, the Ki is a dissociation constant, usually derived from enzyme kinetics or from competition with a known ligand. Take `C[C@H](c1nccs1)N(Cc1ccc(Br)nn1)C(=O)c1ccc2nc(N)c(Br)cc2c1` [Example 435, 2-amino-3-bromo-N-((6-bromo-3-pyridazinyl)methyl)-N-((1R)-1-(1,3-thiazol-2-yl)ethyl)-6-quinolinecarboxamide]: the concentration for half-maximal inhibition (IC50) turned out to be 66 nM in assay [1] (HCT116-MTAP null) and 3280 nM in assay [2]. Also, the Ki in assay [3] was 0.08 nM.

Take `Cc1cc2cc(C(=O)N(Cc3ccc(C(F)(F)F)cn3)CC(C)C)c(Cl)cc2nc1N` [Example 436, 2-amino-7-chloro-3-methyl-N-(2-methylpropyl)-N-((5-(trifluoromethyl)-2-pyridinyl)methyl)-6-quinolinecarboxamide]: the IC50 in assay [1] (HCT116-MTAP null) came to 198 nM; in assay [2], 3720 nM. In addition, the inhibition constant (Ki) in assay [3] is 0.14 nM.

On to `Cc1cc2cc(C(=O)N(Cc3ccc(C(F)(F)F)cn3)[C@H](C)c3ncccn3)c(Cl)cc2nc1N` [Example 437, 2-amino-7-chloro-3-methyl-N-((1R)-1-(2-pyrimidinyl)ethyl)-N-((5-(trifluoromethyl)-2-pyridinyl)methyl)-6-quinolinecarboxamide], for which the IC50 worked out at 76 nM in assay [1] (HCT116-MTAP null) and 1350 nM in assay [2]. Also, the Ki in assay [3] turned out to be 0.29 nM.

Take `Cc1cc2cc(C(=O)N(Cc3ccc(C#N)cn3)[C@H](C)c3ncccn3)c(Cl)cc2nc1N` [Example 438, 2-amino-7-chloro-N-((5-cyano-2-pyridinyl)methyl)-3-methyl-N-((1R)-1-(2-pyrimidinyl)ethyl)-6-quinolinecarboxamide]: the half-maximal inhibitory concentration (IC50) in assay [1] (HCT116-MTAP null) stood at 368 nM; in assay [2] it was 8790 nM. The inhibitory constant (Ki) in assay [3] worked out at 0.76 nM.

With `Cc1cc2cc(C(=O)N(Cc3cncc(Cl)c3)Cc3ccc(C(F)(F)F)cn3)ccc2nc1N` [Example 439, 2-amino-N-((5-chloro-3-pyridinyl)methyl)-3-methyl-N-((5-(trifluoromethyl)-2-pyridinyl)methyl)-6-quinolinecarboxamide], the half-inhibitory concentration (IC50) in assay [1] (HCT116-MTAP null) is 344 nM; in assay [2] it was more than 10000 nM. Moreover, in assay [3], the Ki was determined as 1.19 nM.

For the molecule `[2H]C([2H])([2H])c1cc2cc(C(=O)N(Cc3ccc(C(F)(F)F)cn3)[C@H](C)c3ncccc3F)ccc2nc1N` [Example 440, (R)-2-amino-N-(1-(3-fluoropyridin-2-yl)ethyl)-3-(methyl-d3)-N-((5-(trifluoromethyl)pyridin-2-yl)methyl)quinoline-6-carboxamide], the IC50 in assay [1] came to 38 nM; in assay [2], 690 nM. Besides, the Ki in assay [3] is less than 0.1 nM.

`[2H]C([2H])([2H])c1cc2cc(C(=O)N(Cc3ccc(C#N)cn3)[C@H](C)c3ncccn3)ccc2nc1N` [Example 441, (R)-2-amino-N-((5-cyanopyridin-2-yl)methyl)-3-(methyl-d3)-N-(1-(pyrimidin-2-yl)ethyl)quinoline-6-carboxamide]: the half-inhibitory concentration (IC50) worked out at 107 nM in assay [1] (HCT116-MTAP null) and 2810 nM in assay [2]. In assay [3], the Ki was found to be 0.06 nM.

Take `Cc1cc2cc(C(=O)N(Cc3ccc(C(F)(F)F)cn3)CC(F)(F)F)ccc2nc1N` [Example 442, 2-amino-3-methyl-N-(2,2,2-trifluoroethyl)-N-((5-(trifluoromethyl)-2-pyridinyl)methyl)-6-quinolinecarboxamide]: the figures for the half-inhibitory concentration (IC50) in assay [1] (HCT116-MTAP null) and in assay [2] were 969 nM and more than 10000 nM, respectively. For the same molecule, the inhibitory constant (Ki) in assay [3] was 6.87 nM.

In the case of `Cc1cc2cc(C(=O)N(Cc3ccc(C(F)(F)F)cn3)C[C@H](C)C(F)(F)F)ccc2nc1N` [Example 458, 2-amino-3-methyl-N-((2S)-3,3,3-trifluoro-2-methylpropyl)-N-((5-(trifluoromethyl)-2-pyridinyl)methyl)-6-quinolinecarboxamide], the results for the IC50 in assay [1] and in assay [2] were 590 nM and more than 10000 nM, respectively. Moreover, the Ki in assay [3] was found to be 0.84 nM.

On to `Cc1cc2cc(C(=O)N(Cc3ccc(C#N)cn3)[C@H](C)c3ncccn3)ccc2nc1N` [Example 502, (R)-2-amino-N-((5-cyanopyridin-2-yl)methyl)-3-methyl-N-(1-(pyrimidin-2-yl)ethyl)quinoline-6-carboxamide], for which the figures for the half-maximal inhibitory concentration (IC50) in assay [1] (HCT116-MTAP null) and in assay [2] were 109 nM and 3260 nM, respectively. Further, the Ki in assay [3] amounted to 0.06 nM.

Take `Cc1cc2cc(C(=O)N(Cc3ccc(Cl)cn3)[C@H](C)c3ncccn3)ccc2nc1N` [Example 504, 2-amino-N-((5-chloro-2-pyridinyl)methyl)-3-methyl-N-((1R)-1-(2-pyrimidinyl)ethyl)-6-quinolinecarboxamide]: the concentration for half-maximal inhibition (IC50) in assay [1] (HCT116-MTAP null) was found to be 49 nM; in assay [2], 1360 nM. The Ki in assay [3] turned out to be 0.05 nM.

For `Cc1cc2cc(C(=O)N(Cc3ccc(C(F)(F)F)cn3)[C@@H]3COC[C@H]3O)ccc2nc1N` [Example 505, 2-amino-N-((3R,4S)-4-hydroxytetrahydro-3-furanyl)-3-methyl-N-((5-(trifluoromethyl)-2-pyridinyl)methyl)-6-quinolinecarboxamide], the IC50 turned out to be 765 nM in assay [1] (HCT116-MTAP null) and 10300 nM in assay [2]. In addition, the inhibition constant (Ki) in assay [3] was determined as 2.51 nM.

In the case of `Cc1cc2c(CN(Cc3ccc(C(F)(F)F)cn3)C(=O)c3ccc4nc(N)c(C)cc4c3)ccnc2[nH]1` [Example 506, 2-amino-3-methyl-N-((2-methyl-1H-pyrrolo[2,3-b]pyridin-4-yl)methyl)-N-((5-(trifluoromethyl)-2-pyridinyl)methyl)-6-quinolinecarboxamide], the results for the 50% inhibitory concentration (IC50) in assay [1] (HCT116-MTAP null) and in assay [2] were 107 nM and 1160 nM, respectively. The Ki in assay [3] was determined as 0.01 nM.

`COC[C@@H](C)N(Cc1ccc(C(F)(F)F)cn1)C(=O)c1ccc2nc(N)c(C)cc2c1` [Example 507, 2-amino-N-((2R)-1-methoxy-2-propanyl)-3-methyl-N-((5-(trifluoromethyl)-2-pyridinyl)methyl)-6-quinolinecarboxamide]: the figures for the IC50 in assay [1] (HCT116-MTAP null) and in assay [2] were 46 nM and 913 nM, respectively. For the same molecule, the inhibitory constant (Ki) in assay [3] was 0.15 nM.

As to `Cc1cc2cc(C(=O)N(Cc3ccc(C(F)F)cn3)[C@H](C)c3ncccn3)ccc2nc1N` [Example 508, 2-amino-N-((5-(difluoromethyl)-2-pyridinyl)methyl)-3-methyl-N-((1R)-1-(2-pyrimidinyl)ethyl)-6-quinolinecarboxamide], the 50% inhibitory concentration (IC50) in assay [1] (HCT116-MTAP null) came out at 56 nM; in assay [2] it was 1700 nM. Also, the inhibition constant Ki in assay [3] amounted to 0.73 nM.

For `Cc1cc2cc(C(=O)N(Cc3ccc(C(F)(F)F)nc3C)[C@H](C)c3ncccn3)ccc2nc1N` [Example 509, 2-amino-3-methyl-N-((2-methyl-6-(trifluoromethyl)-3-pyridinyl)methyl)-N-((1R)-1-(2-pyrimidinyl)ethyl)-6-quinolinecarboxamide], the figures for the half-maximal inhibitory concentration (IC50) in assay [1] (HCT116-MTAP null) and in assay [2] were 137 nM and 4120 nM, respectively. The Ki in assay [3] worked out at 0.13 nM.

Take `Cc1cc2cc(C(=O)N(Cc3ccc(C(F)(F)F)nn3)[C@H](C)c3ncccc3F)ccc2nc1N` [Example 510, 2-amino-N-((1R)-1-(3-fluoro-2-pyridinyl)ethyl)-3-methyl-N-((6-(trifluoromethyl)-3-pyridazinyl)methyl)-6-quinolinecarboxamide]: the IC50 stood at 70 nM in assay [1] (HCT116-MTAP null) and 1910 nM in assay [2]. For the same molecule, the Ki in assay [3] came out at 0.32 nM.

Consider `COCC(COC)N(Cc1ccc(C(F)(F)F)cn1)C(=O)c1ccc2nc(N)c(C)cc2c1` [Example 511, 2-amino-N-(1,3-dimethoxy-2-propanyl)-3-methyl-N-((5-(trifluoromethyl)-2-pyridinyl)methyl)-6-quinolinecarboxamide], for which the half-inhibitory concentration (IC50) in assay [1] (HCT116-MTAP null) amounted to 192 nM; in assay [2] it was 2340 nM. Also, in assay [3], the Ki is 0.14 nM.

Consider `C[C@H](c1ncccn1)N(Cc1ccc(C(F)(F)F)cn1)C(=O)c1cnc2nc(N)c(Br)cc2c1` [Example 512, 7-amino-6-bromo-N-((1R)-1-(2-pyrimidinyl)ethyl)-N-((5-(trifluoromethyl)-2-pyridinyl)methyl)-1,8-naphthyridine-3-carboxamide], for which the IC50 in assay [1] (HCT116-MTAP null) was 121 nM; in assay [2] it was 3100 nM. Moreover, in assay [3], the inhibition constant (Ki) was 0.13 nM.

Regarding `Cc1cc2cc(C(=O)N(Cc3cc(C#N)ccn3)[C@H](C)c3ncccn3)ccc2nc1N` [Example 513, 2-amino-N-((4-cyano-2-pyridinyl)methyl)-3-methyl-N-((1R)-1-(2-pyrimidinyl)ethyl)-6-quinolinecarboxamide], the IC50 in assay [1] (HCT116-MTAP null) was 552 nM; in assay [2], more than 10000 nM. Also, the Ki in assay [3] turned out to be 2.61 nM.

`Cc1cc2cc(C(=O)N(Cc3ccc(Br)nn3)[C@H](C)c3nccs3)ccc2nc1N` [Example 514, 2-amino-N-((6-bromo-3-pyridazinyl)methyl)-3-methyl-N-((1R)-1-(1,3-thiazol-2-yl)ethyl)-6-quinolinecarboxamide]: the IC50 in assay [1] (HCT116-MTAP null) stood at 28 nM; in assay [2], 625 nM. The Ki in assay [3] was 0.002 nM.

For the molecule `Cc1cc2cc(C(=O)N(Cc3ccc(C(F)(F)F)nn3)[C@@H]3CCOc4ccc(F)nc43)ccc2nc1N` [Example 515, (R)-2-amino-N-(6-fluoro-3,4-dihydro-2H-pyrano[3,2-b]pyridin-4-yl)-3-methyl-N-((6-(trifluoromethyl)pyridazin-3-yl)methyl)quinoline-6-carboxamide], the figures for the IC50 in assay [1] (HCT116-MTAP null) and in assay [2] were 23 nM and 480 nM, respectively. Further, the Ki in assay [3] is 0.02 nM.

Take `Cc1cc2cc(C(=O)N(Cc3ccc(C(F)(F)F)cn3)Cc3ncccc3F)cnc2nc1N` [Example 537, 7-amino-N-((3-fluoropyridin-2-yl)methyl)-6-methyl-N-((5-(trifluoromethyl)pyridin-2-yl)methyl)-1,8-naphthyridine-3-carboxamide]: the IC50 in assay [1] (HCT116-MTAP null) was 701 nM; in assay [2], 5960 nM. For the same molecule, the inhibition constant Ki in assay [3] turned out to be 0.51 nM.

For the origin of these results see US20230159510A1, “NOVEL PRMT5 INHIBITORS” (AMGEN INC., priority 2020, published 2023).
